The values that follow come from US10111432B2, “Picolinamide N-oxide compounds with fungicidal activity” (Dow AgroSciences LLC, priority 2016, dated 2018).

Read-outs that look alike come from different tables or passages of the source.

For assay [1], the system named is Puccinia triticina. The assay is described as follows: Fungicidal activity: wheat brown rust (PUCCRT), disease control on wheat seedlings. Type of assay: in vivo. To be noted: for pest or weed control at 121.5 g/ha: low volume application, 121.5 g/H; for pest or weed control at 100 ppm: high volume application. The protocol:
Technical grades of materials were dissolved in acetone, which were then mixed with nine volumes of water (H2O) containing 110 ppm Triton X-100. The fungicide solutions were applied onto wheat seedlings using an automated booth sprayer to run-off. All sprayed plants were allowed to air dry prior to further handling. All fungicides were evaluated using the aforementioned method for their activity vs. all target diseases, unless stated otherwise. Wheat leaf blotch and brown rust activity were also evaluated using track spray applications, in which case the fungicides were formulated as EC formulations, containing 0.1% Trycol 5941 in the spray solutions. Wheat plants (variety Yuma) were grown from seed in a greenhouse in 50% mineral soil/50% soil-less Metro mix until the first leaf was fully emerged, with 7-10 seedlings per pot. These plants were inoculated with an aqueous spore suspension of Puccinia triticina either prior to or after fungicide treatments. After inoculation the plants were kept in a dark dew room at 22° C. with 100% relative humidity overnight to permit spores to germinate and infect the leaf. The plants were then transferred to a greenhouse set at 24° C. for disease to develop. Fungicide formulation, application and disease assessment followed the procedures as described in the Example A. Results of the evaluations are shown below in Table 4.

The test system of assay [2] is Zymoseptoria tritici. The assay is described as follows: Fungicidal activity: leaf blotch of wheat (SEPTTR), disease control on wheat seedlings. In kind it is in vivo. Particulars: for pest or weed control at 121.5 g/ha: low volume application, 121.5 g/H; for pest or weed control at 100 ppm: high volume application. The procedure: Technical grades of materials were dissolved in acetone, which were then mixed with nine volumes of water (H2O) containing 110 ppm Triton X-100. The fungicide solutions were applied onto wheat seedlings using an automated booth sprayer to run-off. All sprayed plants were allowed to air dry prior to further handling. All fungicides were evaluated using the aforementioned method for their activity vs. all target diseases, unless stated otherwise. Wheat leaf blotch and brown rust activity were also evaluated using track spray applications, in which case the fungicides were formulated as EC formulations, containing 0.1% Trycol 5941 in the spray solutions. Wheat plants (variety Yuma) were grown from seed in a greenhouse in 50% mineral soil/50% soil-less Metro mix until the first leaf was fully emerged, with 7-10 seedlings per pot. These plants were inoculated with an aqueous spore suspension of Zymoseptoria tritici either prior to or after fungicide treatments. After inoculation the plants were kept in 100% relative humidity (one day in a dark dew chamber followed by two to three days in a lighted dew chamber at 20° C.) to permit spores to germinate and infect the leaf. The plants were then transferred to a greenhouse set at 20° C. for disease to develop. When disease symptoms were fully expressed on the 1st leaves of untreated plants, infection levels were assessed on a scale of 0 to 100 percent disease severity. Percent disease control was calculated using the ratio of disease severity on treated plants relative to untreated plants.

Setting [3] is: 24 h, 1 day protectant, read-out: PUCCRT disease control, 1DP, LV activity at 121.5 g/H.
Where [4] appears, read: 72 h, 3 day curative, read-out: PUCCRT disease control, 3DC, LV activity at 121.5 g/H.
Setting [5] is: 24 h, 1 day protectant, read-out: SEPTTR disease control, 1DP, LV activity at 121.5 g/H.
Where [6] appears, read: 72 h, 3 day curative, read-out: SEPTTR disease control, 3DC, LV activity at 121.5 g/H.
Setting [7] is: 24 h, 1 day protectant, read-out: PUCCRT disease control, 1DP, HV activity at 100 ppm.
[8] abbreviates: 72 h, 3 day curative, read-out: PUCCRT disease control, 3DC, HV activity at 100 ppm.
Where [9] appears, read: 24 h, 1 day protectant, read-out: SEPTTR disease control, 1DP, HV activity at 100 ppm.
[10] abbreviates: 72 h, 3 day curative, read-out: SEPTTR disease control, 3DC, HV activity at 100 ppm.

As to `COc1cc[n+]([O-])c(C(=O)N[C@@H](C)C(=O)O[C@@H](C)C(c2ccc(C)c(F)c2)c2ccc(C)c(F)c2)c1O` [Compound 19], the pest or weed control at 121.5 g/ha is not above 80% in assay [1] (setting [3]), not above 80% in assay [1] (setting [4]), more than 80% in assay [2] (setting [5]) and more than 80% in assay [2] (setting [6]).

Regarding `COc1cc[n+]([O-])c(C(=O)N[C@@H](C)C(=O)O[C@@H](C)C(c2ccc(F)c(F)c2)c2ccc(F)c(F)c2)c1O` [Compound 21], the pest or weed control at 121.5 g/ha in assay [1] (setting [4]) was not above 80%; in assay [2] (setting [5]), more than 80%; in assay [2] (setting [6]) it was more than 80%.

As for `COc1cc[n+]([O-])c(C(=O)N[C@@H](C)C(=O)O[C@@H](C)[C@@H](c2ccccc2)c2ccc(F)cc2C)c1O` [Compound 22], the pest or weed control at 100 ppm in assay [1] (setting [7]), in assay [1] (setting [8]), in assay [2] (setting [9]) and in assay [2] (setting [10]) was more than 80% each time. Moreover, the pest or weed control at 121.5 g/ha in assay [1] (setting [3]), in assay [1] (setting [4]), in assay [2] (setting [5]) and in assay [2] (setting [6]) was more than 80% throughout.

On to `COc1cc(F)ccc1[C@@H](c1ccc(F)c(C)c1)[C@H](C)OC(=O)[C@H](C)NC(=O)c1c(O)c(OC)cc[n+]1[O-]` [Compound 23], for which the pest or weed control at 100 ppm in assay [1] (setting [7]), in assay [1] (setting [8]), in assay [2] (setting [9]) and in assay [2] (setting [10]) was more than 80% throughout.

`COc1cc(F)ccc1[C@@H](c1ccc(F)cc1)[C@H](C)OC(=O)[C@H](C)NC(=O)c1c(O)c(OC)cc[n+]1[O-]` [Compound 24]: the pest or weed control at 100 ppm in assay [1] (setting [7]), in assay [1] (setting [8]), in assay [2] (setting [9]) and in assay [2] (setting [10]) was more than 80% each time. The pest or weed control at 121.5 g/ha in assay [1] (setting [3]) is more than 80%; in assay [1] (setting [4]) it was not above 80%; in assay [2] (setting [5]), more than 80%; in assay [2] (setting [6]), more than 80%.

For `COc1cc[n+]([O-])c(C(=O)N[C@@H](C)C(=O)O[C@@H](C)C(c2cccc(C)c2)c2cccc(C)c2)c1O` [Compound 25], the pest or weed control at 100 ppm in assay [1] (setting [7]), in assay [1] (setting [8]), in assay [2] (setting [9]) and in assay [2] (setting [10]) was more than 80% in each case. Also, the pest or weed control at 121.5 g/ha in assay [1] (setting [3]), in assay [1] (setting [4]), in assay [2] (setting [5]) and in assay [2] (setting [6]) was more than 80% each time.

In the case of `COc1ccc(C(c2ccc(OC)cc2)[C@H](C)OC(=O)[C@H](C)NC(=O)c2c(O)c(OC)cc[n+]2[O-])cc1` [Compound 26], the pest or weed control at 100 ppm in assay [1] (setting [7]), in assay [1] (setting [8]), in assay [2] (setting [9]) and in assay [2] (setting [10]) was more than 80% throughout.

As for `COc1cc[n+]([O-])c(C(=O)N[C@@H](C)C(=O)O[C@@H](C)[C@H](c2ccc(C)cc2)c2ccc(C)cc2F)c1O` [Compound 28], the pest or weed control at 100 ppm in assay [1] (setting [7]), in assay [2] (setting [9]) and in assay [2] (setting [10]) was more than 80% throughout. For the same compound, the pest or weed control at 121.5 g/ha was more than 80% in assay [1] (setting [3]), not above 80% in assay [1] (setting [4]), more than 80% in assay [2] (setting [5]) and more than 80% in assay [2] (setting [6]).

In the case of `COc1cc[n+]([O-])c(C(=O)N[C@@H](C)C(=O)O[C@@H](C)[C@@H](c2ccc(F)cc2)c2ccc(F)cc2C)c1O` [Compound 29], the pest or weed control at 100 ppm in assay [1] (setting [7]), in assay [1] (setting [8]), in assay [2] (setting [9]) and in assay [2] (setting [10]) was more than 80% each time. Further, the pest or weed control at 121.5 g/ha is more than 80% in assay [1] (setting [3]), not above 80% in assay [1] (setting [4]), more than 80% in assay [2] (setting [5]) and more than 80% in assay [2] (setting [6]).

As to `COc1ccccc1C(c1ccccc1OC)[C@H](C)OC(=O)[C@H](C)NC(=O)c1c(O)c(OC)cc[n+]1[O-]` [Compound 30], the pest or weed control at 121.5 g/ha is not above 80% in assay [1] (setting [3]), not above 80% in assay [1] (setting [4]), more than 80% in assay [2] (setting [5]) and more than 80% in assay [2] (setting [6]).

With `COc1cc[n+]([O-])c(C(=O)N[C@@H](C)C(=O)O[C@@H](C)[C@@H](c2ccccc2)c2ccc(F)c(C)c2)c1O` [Compound 31], the pest or weed control at 100 ppm in assay [1] (setting [7]), in assay [1] (setting [8]), in assay [2] (setting [9]) and in assay [2] (setting [10]) was more than 80% throughout. Moreover, the pest or weed control at 121.5 g/ha is more than 80% in assay [1] (setting [3]), not above 80% in assay [1] (setting [4]), more than 80% in assay [2] (setting [5]) and more than 80% in assay [2] (setting [6]).

Take `CCOc1cc(F)ccc1C(c1ccc(F)cc1OCC)[C@H](C)OC(=O)[C@H](C)NC(=O)c1c(O)c(OC)cc[n+]1[O-]` [Compound 32]: the pest or weed control at 121.5 g/ha in assay [1] (setting [3]), in assay [2] (setting [5]) and in assay [2] (setting [6]) was not above 80% each time.

With `COc1cc[n+]([O-])c(C(=O)N[C@@H](C)C(=O)O[C@@H](C)[C@H](c2ccccc2)c2ccc(C)cc2F)c1O` [Compound 33], the pest or weed control at 121.5 g/ha is not above 80% in assay [1] (setting [3]), more than 80% in assay [2] (setting [5]) and not above 80% in assay [2] (setting [6]).

With `COc1cc[n+]([O-])c(C(=O)N[C@@H](C)C(=O)O[C@@H](C)C(c2ccc(Cl)cc2)c2ccc(Cl)cc2)c1O` [Compound 34], the pest or weed control at 121.5 g/ha in assay [1] (setting [3]), in assay [2] (setting [5]) and in assay [2] (setting [6]) was more than 80% in each case.

In the case of `COc1cccc(C(c2cccc(OC)c2)[C@H](C)OC(=O)[C@H](C)NC(=O)c2c(O)c(OC)cc[n+]2[O-])c1` [Compound 36], the pest or weed control at 121.5 g/ha in assay [1] (setting [3]) and in assay [2] (setting [5]) was not above 80% throughout.

For the compound `COc1cc(Cl)ccc1C(c1ccc(Cl)cc1OC)[C@H](C)OC(=O)[C@H](C)NC(=O)c1c(O)c(OC)cc[n+]1[O-]` [Compound 37], the pest or weed control at 121.5 g/ha in assay [1] (setting [3]) is more than 80%; in assay [2] (setting [5]), more than 80%; in assay [2] (setting [6]), not above 80%.

On to `COc1cc[n+]([O-])c(C(=O)N[C@@H](C)C(=O)O[C@@H](C)[C@H](c2ccc(F)cc2)c2ccc(F)cc2C)c1O` [Compound 38], for which the pest or weed control at 121.5 g/ha in assay [1] (setting [3]) was not above 80%; in assay [2] (setting [5]), more than 80%; in assay [2] (setting [6]) it was more than 80%.

As to `COc1cc[n+]([O-])c(C(=O)N[C@@H](C)C(=O)O[C@@H](C)C(c2ccc(C)cc2)c2ccc(C)cc2)c1O` [Compound 39], the pest or weed control at 121.5 g/ha in assay [1] (setting [3]) was not above 80%; in assay [2] (setting [5]) it was more than 80%; in assay [2] (setting [6]), not above 80%.
